The melting point is the temperature, or range, at which the solid turns liquid.

`O=[N+]([O-])c1ccc2c(c1)CCN(Cc1ccc3cc([N+](=O)[O-])ccc3n1)CC2` gave a melting point of 127 to 130 °C. Regarding `O=C(O)C(c1ccccc1)N1CC(N2C(=O)c3ccccc3C2=O)C1=O` (configuration not stated), the melting point was 176 to 183 °C.

`COC(=O)c1[nH]c2c(C)ccc(Cl)c2c1C(C)=O` yielded a melting point of 167 to 168 °C. In turn, `NC(=O)NCCC(F)=C(F)F` displayed a melting point of 86 to 88 °C. `CCCCCCCCCCCCCC(O)CNCCCCCCNCC(O)CCCCCCCCCCCCC` (configuration not stated): the melting point is 117 to 124 °C. For the compound `CCOC(=O)C1CCc2c([nH]c3ccc(Cl)cc23)C1` (configuration not stated), the melting point lay in the range of 141 to 142 °C. In the case of `C=C(c1nc2ccccc2s1)C1CCN(CCc2ccc(OC)cc2)CC1`, the melting point is 84 to 85 °C. `COC(=O)c1ccc(OCC=O)cc1` registered a melting point of 58 to 60 °C. Take `NS(=O)(=O)c1cc(C(=O)O)cc(N2CCCC2=O)c1Oc1ccccc1`: the melting point fell in the range of 282 to 285 °C.

Compound `CCCOc1ccc2c(c1)C(N(C)S(C)(=O)=O)=CC(C)(C)O2` showed a melting point of 93 to 95 °C. Regarding `CC(=O)N(c1ccc(C(F)(F)F)cc1)c1nccc(-c2cccc(Cl)c2)n1`, the melting point lay in the range of 129 to 130 °C.

The compound `CCCCN(C(=O)c1ccc(Cl)cc1)[C@@H]1CN(CC)C[C@H]1O` (relative stereo) showed a melting point of 96.5 to 98 °C. Consider `CC(=O)c1cccc(Oc2cccc(Cl)n2)c1`, for which the melting point lay in the range of 82 to 83 °C. Take `C=CCOC(=O)c1c(C)nc2c(c1N)c1ccccc1n2C`: the melting point is 94 °C. Compound `Cc1cc(OCC(O)CNC(C)C)c2cc(C(=O)N(C)C)[nH]c2c1` (configuration not stated) yielded a melting point of 169 to 171 °C. `CC(C)(C)OC(=O)N1CCC2(CC1)C(=O)N(CC(=O)O)CN2c1ccccc1` came in with a melting point of 200 to 201 °C. In turn, `CCCc1c(OCC2(Sc3ccc(C(=O)CCC(=O)O)cc3)CCCCC2O)ccc(C(C)=O)c1O` (configuration not stated) showed a melting point of 65 to 67 °C. Compound `COc1ccc2c(c1)CCC1=C2CCC(O)C1` (configuration not stated) yielded a melting point of 90 to 92 °C. In turn, `Cn1c(=O)c2c(ncn2CC(O)CN2CCN(CCCS(=O)(=O)c3ccccc3)CC2)n(C)c1=O` (configuration not stated) returned a melting point of 168 °C. `Cc1oc(-c2ccco2)nc1COc1cccc(COc2nn(Cc3ccccc3)cc2C=O)c1` came in with a melting point of 135 to 136 °C. For `NC(=O)[C@@H]1CCCN1C(=O)/C=C/Sc1ccccc1`, the melting point lay in the range of 50 to 54 °C.

On to `CSc1ccc(C2=CC(=O)C3(CCOCC3)O2)cc1`, for which the melting point lay within 135 to 138 °C. As for `Cn1cnc(=S)c(-c2cccc(C(F)(F)F)c2)c1`, the melting point lay within 197 to 200 °C.

With `CCN(CC)CCn1c2ccccc2c(=NNC(N)=S)c2ccccc21`, the melting point lay within 154 to 156 °C.

The compound `C=CCNC(=O)NC(=O)c1c(Cl)cccc1[Si](C)(C)C` registered a melting point of 68 to 71 °C. `Clc1cccc2[nH]c3c4ccccc4nc-3c(Cl)c12` registered a melting point of 275 to 277 °C. In turn, `CC(=O)OC1(N=NC2(OC(C)=O)CCCCC2)CCCCC1` returned a melting point of 91 to 94 °C. `COc1cc(O)c2c(=O)cc(C(=O)Nc3ccc(CC4SC(=O)NC4=O)cc3)oc2c1` (configuration not stated) had a melting point of 255 to 256 °C. Compound `C#CCOc1cc(C(=O)O)cc(N)c1-c1ccccc1` yielded a melting point of 172 to 173 °C.

As for `CCOC(=O)c1cnc2c(c(C)nc3cc(C)nn32)c1NCCCN(C)C`, the melting point was in the range of 73 to 75 °C. `CCOC(=O)CCC(C#N)(c1cccc(F)c1)N1CCOCC1` (configuration not stated): the melting point was in the range of 88 to 90 °C. The figure for `CCOC(=O)OC(C)OC(=O)c1cc(-c2ccc(F)cc2F)ccc1O` (configuration not stated) is 76 to 78 °C; for `C[C@@H]1O[C@](/C=C/C2CC2)(C(F)(F)F)c2c(ccc(F)c2F)NC1=O` (relative stereo) it is 192 to 193 °C. With `CCCCCCCCCCCCCCOc1ccc(C(=O)Cc2ccc([N+](=O)[O-])cc2)cc1`, the melting point is 84 to 85 °C. On to `COc1ccc(-c2ccc(-c3ccc(F)cc3)nc2-c2ccc(O)cc2)cc1`, for which the melting point lay within 143 to 145 °C.

For `O=C1N[C@H](C(=O)NCCCCO)CS1`, the melting point lay within 81 to 83 °C. As to `Cc1cc(C(=O)CS(C)(=O)=O)cc(C)c1N`, the melting point was 179 to 180 °C. Turning to `Cc1nc(NC(=O)Nc2ccccc2)n(C)c(=O)c1CCN1CCN(c2noc3ccccc23)CC1`, the melting point was determined as 216 °C.

Turning to `Cc1ccc(S(=O)(=O)OCC2Cn3c(nc4c(C)cccc43)-c3cccc(Cl)c3O2)cc1` (configuration not stated), the melting point was 168 to 169 °C. The figure for `COc1ccccc1-c1cn([C@H]2CN3CCC2CC3)nn1` is 120 °C. To `N#CC=C(N)c1ccc2ccccc2c1` belongs 85 to 90 °C; to `OCc1ccc(-c2nn(Cc3ccccc3)c3ncccc23)o1`, 104 °C. For the compound `C=CCN1CC2OC(c3ccccc3)(C1)c1ccccc12` (configuration not stated), the melting point lay within 127 to 128 °C. Compound `COc1ccc(C#Cc2cccc(C(C)N(O)C(N)=O)c2)cc1` (configuration not stated) showed a melting point of 141 to 142 °C.

`Clc1ccc2onc(Cn3ccnc3)c2c1` came in with a melting point of 100 to 102 °C. As to `Cn1ncnc1COc1nn2c(-c3cccnc3)nncc2c1-c1ccccc1F`, the melting point was 164 to 166 °C. The figure for `CN(C(=O)CN(C(=O)CNC(=O)Nc1cccc(N2CCCCC2)c1)c1ccccc1)c1ccccc1` is 235 °C; for `O=c1ccc2c(-n3ccnc3)nccc2[nH]1` it is 291 to 292 °C.

With `Nc1c(F)c(F)cc2c1c(=O)c(C(=O)O)cn2C1CC1`, the melting point was > 300 °C. To `CN(C)CCN1C(=O)c2cscc2N(C)c2ncccc21` belongs 129 to 130 °C; to `CCOC(=O)c1ncc(Cl)cc1N`, 140 to 142 °C. The figure for `Cc1ccc2c(c1)CC1(CCC(=O)CC1)C2` is 68 to 70 °C. `CC(=O)NCCNc1nc(-c2ccccc2)nc2[nH]c(COc3ccccc3)cc12` yielded a melting point of 196 to 197 °C. In the case of `Cc1ccc(Cn2cccc2C(=O)CC(=O)C(=O)O)cc1`, the melting point fell in the range of 179 to 181 °C. With `COC(=O)C[C@H]1C[C@@H](CCc2c(-c3ccc(F)cc3)c(-c3ccc(F)cc3)cn2C(C)C)OC(C)(C)O1`, the melting point fell in the range of 55 to 57 °C. For the compound `CSc1ccc(NC(=O)CCCCCSc2nc3ccccc3o2)c(SC)n1`, the melting point was 125 to 126 °C.

For the compound `CC(C)CCC(=O)NC[C@H](O)[C@H](O)[C@H](CC1CCCCC1)NC(=O)OC(C)(C)C`, the melting point is 179 to 183 °C. As for `CC(C)(CO)c1ccc(C(=O)Nc2cn3cc(-c4ccoc4)ccc3n2)cc1`, the melting point was 246 to 248 °C. With `O=C(c1ccccc1)N1CCc2[nH]c3ccc(-c4ccccc4)cc3c2CC1`, the melting point lay within 140 to 145 °C. `C=C(Br)C(=O)Nc1ccccc1` came in with a melting point of 90.5 to 92.5 °C.

As to `COc1cc(CCCC(O)C(=O)OC(C)C)ccc1OCc1nc(-c2ccco2)oc1C` (configuration not stated), the melting point lay within 75 to 76 °C.

On to `CN1CCCCC1=C1C(=O)N(c2cccc(Cl)c2)c2ccccc21`, for which the melting point was in the range of 162 to 165 °C.

`O=C=Nc1cc(Cl)c(Br)cc1CBr` gave a melting point of 48 to 50 °C.

Compound `C/C(=C\CC1SC(=O)NC1=O)c1cccc(OCc2nc(-c3ccc(OC(F)(F)F)cc3)oc2C)c1` (configuration not stated) displayed a melting point of 50 to 51 °C. With `O=C(O)Cn1c(-c2ccc(F)cc2)nc2cccnc21`, the melting point is > 250 °C. In turn, `N#Cc1ccc(OCCCCCCCCCCCCOc2ccc(C#N)c(C#N)c2)cc1C#N` showed a melting point of 104 to 107 °C. Take `COc1cc(OC)c2c(=O)[nH]c(-c3cc(C)c(O)c(C)c3)nc2n1`: the melting point lay in the range of 297 to 299 °C. `C=CC(=O)NCc1ccc(Cl)cc1` displayed a melting point of 103 to 104 °C. Regarding `Cc1nc(N)sc1-c1ccnc(Nc2ccc(N3CCOCC3)cc2)n1`, the melting point lay in the range of 300 to 304 °C. For the compound `CC(C)(C)OC(=O)n1nc2nc3n(c(=O)c2c1N)CCS3`, the melting point was > 300 °C. The compound `CC(C)(C)OC(=O)N1CCC(c2cn(S(C)(=O)=O)c3ccccc23)CC1` had a melting point of 136 to 137 °C. The figure for `N#Cc1cccc(-n2cnc(-c3ccccn3)n2)c1` is 194 to 195 °C; for `CN1CCN(c2c(F)cc3c(=O)c(C(=O)O)cn(-c4ccc(O)cc4)c3c2F)CC1` it is > 300 °C. For `O=C1CCN(Cc2ccccc2OC(F)F)CC1C(c1ccc(F)cc1)c1ccc(F)cc1` (configuration not stated), the melting point fell in the range of 83 to 84 °C.

Consider `C=C1C=C(Oc2cc(C(=O)Nc3c(Cl)cncc3Cl)ccc2OC)C1(F)F`, for which the melting point is 102 to 104 °C. Compound `COc1nc(NC(=O)NS(=O)(=O)Oc2ccccc2-c2ccon2)nc(OC)n1` showed a melting point of 166 to 168 °C. In the case of `CCOc1nn(-c2ccc(C(F)(F)F)cn2)cc1CCCO`, the melting point lay in the range of 85 to 86 °C. To `O=C(NCCCCO)c1c([N+](=O)[O-])ccc(N(CCBr)CCBr)c1[N+](=O)[O-]` belongs 114 to 117 °C; to `Cc1cc(C(C)(C)C)c(O)c(C)c1CSP(=S)(C1CCCCC1)C1CCCCC1`, 113 to 116 °C; to `Nc1ncnc2[nH]cc(-c3ccccc3)c12`, 238 to 239 °C.

Consider `c1ccc(CCC2=NOC3(CCNCC3)C2)cc1`, for which the melting point fell in the range of 106 to 109 °C. For `CCONC(=O)Cc1ccc2cc(OC)ccc2c1`, the melting point fell in the range of 196 to 197 °C. To `Cc1ccc(-c2c(CC(=O)O)c(C3CCCCC3)nn2-c2ccccc2)cc1` belongs 189 to 191 °C; to `CCCCC(CC)(C(=O)O)C(=O)O`, 161 to 170 °C. `Nc1c(Br)cc([N+](=O)[O-])cc1C(F)(F)F` gave a melting point of 84 °C. To `CCOC(=O)c1sc(N2CCN(Cc3ccccc3)C2=O)nc1C` belongs 122 to 124 °C. `Oc1c(Br)cc(-c2cccc3sc4ccccc4c23)cc1Br` returned a melting point of 128 to 130 °C. The figure for `CC(C)N(CCN1C(=O)/C(=N/NC(N)=O)c2ccccc21)C(C)C` is 189 to 191 °C; for `COc1ccc(S(=O)(=O)Nc2cccnc2Nc2ccccc2)cc1` it is 172 to 173 °C; for `CCCCCCC(C)(C)c1cc(OC)c(C2C(O)[C@]3(C)CC[C@H]2C3(C)C)c(OC)c1` (some centres not stated) it is 96 to 98 °C. The figure for `c1ccc2c(c1)ncc1nc(-c3nnn[nH]3)cn12` is 320 to 322 °C; for `O=C(O)C(=O)c1ccc(OCc2ccc3ccccc3n2)cc1` it is 225 to 228 °C.

These data come from a melting point compilation (Tetko et al.; mined from patent text by program, amines drawn as free bases though some values may be those of a salt).
